Experimental data: paper PMC6412381, “Covalently Linking Oligomerization-Impaired GlpF Protomers Does Not Completely Re-establish Wild-Type Channel Activity” (International Journal of Molecular Sciences, 2019)

Columns and labels:
GlpF WT (non-fused) = target: T1, GlpF WT (non-fused) (Escherichia coli, UniProt P0AER0); assay: stopped-flow light scattering of E. coli SK46 cells, re-swelling by ribitol influx; assay type: cell-based; details: LB medium, mixed with equal volume of 600 mM ribitol, 25 °C, 500 µM IPTG induction; transport through channel
T1 construct: expressed from pMalp2-based plasmid in E. coli SK46 lacking GlpF and AqpZ
T1 sequence (P0AER0 1-281): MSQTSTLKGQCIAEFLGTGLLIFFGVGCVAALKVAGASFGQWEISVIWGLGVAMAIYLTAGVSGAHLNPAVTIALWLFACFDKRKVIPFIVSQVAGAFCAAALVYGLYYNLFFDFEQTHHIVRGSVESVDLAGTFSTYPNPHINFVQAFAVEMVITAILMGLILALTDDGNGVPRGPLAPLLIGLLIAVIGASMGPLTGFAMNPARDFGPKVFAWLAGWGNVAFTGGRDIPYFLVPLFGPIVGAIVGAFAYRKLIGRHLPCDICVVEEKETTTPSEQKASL

[1] = target: T2, WT4 (genetically fused GlpF tetramer) (Escherichia coli, UniProt P0AER0); assay: as above; assay type: cell-based; details: LB medium, mixed with equal volume of 600 mM ribitol, 25 °C, 500 µM IPTG induction; transport through channel
T2 construct: four full-length GlpF copies fused in one polypeptide, N-terminal extension MGSGLE, Val-Glu linkers between monomers, calculated 120 kDa; expressed in E. coli SK46 lacking GlpF and AqpZ
T2 sequence (P0AER0 1-281): T1 sequence (P0AER0 1-281)

OC[C@@H](O)[C@@H](O)[C@@H](O)CO [ribitol]
k (flux rate constant) (GlpF WT (non-fused)): the ribitol conductance of the fused GlpF tetramer was slightly decreased compared to the non-fused
k (flux rate constant) [1]: yet the WT4 protein was still highly active
